Results reported in the NIST ThermoML archive (doi:10.1021/je100554g).

Legend:
[1] = 101.33 kPa, Liquid, Pulse-echo method
[2] = xn = mol fraction of the nth substance listed; conditions: 101 kPa, Liquid, Pulse-echo method

[Cl-].[Li+] [lithium chloride]
[1]
Conditions | speed of sound [m/s]
950 K | 1988
976 K | 1973
1003 K | 1945
1030 K | 1924
1062 K | 1894
1082 K | 1879
1110 K | 1858
1148 K | 1825
1181 K | 1791

[Cl][Nd]([Cl])[Cl] [neodymium(III) chloride]
[1]
Conditions | speed of sound [m/s]
1044 K | 1248
1045 K | 1259
1075 K | 1237
1083 K | 1227
1099 K | 1227
1148 K | 1223
1165 K | 1212
1184 K | 1188
1218 K | 1190

[Cl][Nd]([Cl])[Cl] [neodymium(III) chloride] + [Cl-].[Cs+]
[2]
Conditions | speed of sound [m/s]
913 K, x1 = 0.45 | 1110
968 K, x1 = 0.45 | 1080
998 K, x1 = 0.8 | 1205
1008 K, x1 = 0.45 | 1053
1043 K, x1 = 0.8 | 1172
1061 K, x1 = 0.45 | 1026
1083 K, x1 = 0.8 | 1148
1112 K, x1 = 0.45 | 998
1123 K, x1 = 0.8 | 1129
1138 K, x1 = 0.45 | 980
1143 K, x1 = 0.8 | 1115
1147 K, x1 = 0.25 | 969
1169 K, x1 = 0.25 | 961
1188 K, x1 = 0.25 | 953
1207 K, x1 = 0.25 | 949
1226 K, x1 = 0.25 | 941
1245 K, x1 = 0.25 | 934

[Cl][Nd]([Cl])[Cl] [neodymium(III) chloride] + [Cl-].[K+]
[2]
Conditions | speed of sound [m/s]
1007 K, x1 = 0.75 | 1275
1037 K, x1 = 0.75 | 1259
1053 K, x1 = 0.37 | 1283
1058 K, x1 = 0.25 | 1370
1063 K, x1 = 0.5 | 1259
1067 K, x1 = 0.75 | 1240
1076 K, x1 = 0.25 | 1355
1080 K, x1 = 0.37 | 1260
1088 K, x1 = 0.5 | 1240
1096 K, x1 = 0.25 | 1340
1110 K, x1 = 0.37 | 1250
1110 K, x1 = 0.75 | 1225
1118 K, x1 = 0.25 | 1315
1124 K, x1 = 0.5 | 1230
1128 K, x1 = 0.37 | 1241
1139 K, x1 = 0.75 | 1210
1145 K, x1 = 0.37 | 1223
1146 K, x1 = 0.25 | 1300
1150 K, x1 = 0.5 | 1214
1163 K, x1 = 0.75 | 1197
1173 K, x1 = 0.37 | 1212
1176 K, x1 = 0.25 | 1256
1178 K, x1 = 0.37 | 1200
1185 K, x1 = 0.5 | 1190
1186 K, x1 = 0.25 | 1260
1203 K, x1 = 0.5 | 1186
1213 K, x1 = 0.25 | 1234

[Cl][Nd]([Cl])[Cl] [neodymium(III) chloride] + [Cl-].[Li+]
[2], x1 = 0.5
Conditions | speed of sound [m/s]
995 K | 1395
1033 K | 1374
1108 K | 1350
1133 K | 1331
1167 K | 1326

[Cl][Nd]([Cl])[Cl] [neodymium(III) chloride] + [Cl-].[Na+]
[2]
Conditions | speed of sound [m/s]
1009 K, x1 = 0.365 | 1450
1048 K, x1 = 0.365 | 1418
1053 K, x1 = 0.2 | 1520
1063 K, x1 = 0.75 | 1290
1073 K, x1 = 0.2 | 1502
1073 K, x1 = 0.75 | 1285
1074 K, x1 = 0.365 | 1389
1090 K, x1 = 0.44 | 1350
1100 K, x1 = 0.365 | 1368
1103 K, x1 = 0.2 | 1465
1103 K, x1 = 0.44 | 1340
1103 K, x1 = 0.75 | 1270
1115 K, x1 = 0.44 | 1325
1123 K, x1 = 0.44 | 1330
1127 K, x1 = 0.2 | 1476
1128 K, x1 = 0.365 | 1354
1133 K, x1 = 0.44 | 1325
1133 K, x1 = 0.75 | 1256
1143 K, x1 = 0.2 | 1447
1143 K, x1 = 0.44 | 1322
1150 K, x1 = 0.44 | 1307
1154 K, x1 = 0.75 | 1250
1155 K, x1 = 0.365 | 1357
1173 K, x1 = 0.2 | 1420
1175 K, x1 = 0.365 | 1340
1176 K, x1 = 0.75 | 1240
